{"source": "patent US20230310505A1", "about": "“COMPOSITION FOR PREVENTING HEARING LOSS CONTAINING MESENCHYMAL STEM CELLS OR EXOSOMES DERIVED THEREFROM AS ACTIVE INGREDIENT” (UNIVERSITY INDUSTRY FOUNDATION, YONSEI UNIVERSITY WONJU …, priority 2020, published 2023)", "system": "outer hair cells (OHC) and inner hair cells (IHC) of cochlear explants", "experiment": "Ototoxic hearing loss induction: cisplatin treatment of cochlear explants, hair cell viability by immunofluorescence", "type": "cell-based, ICR mice", "conditions": "cisplatin for 24 hours", "protocol": "It is also known that damage to outer hair cells (OHC) and inner hair cells (IHC) of the cochlea leads to hearing loss.\nAfter completion of the treatment, the cochlear explants were fixed with PBS containing 4% formalin for 15 minutes and washed with PBS three times. Next, after incubation with PBS containing 0.1% Triton X-100 for 10 minutes, blocking was performed with PBS containing 4% BSA for 30 minutes. Thereafter, incubation was performed for 1 hour with a rabbit anti-mouse myosin 7a primary antibody (1:400, abcam). After washing with PBS three times, incubation was performed for 1 hour with goat anti-rabbit IgG (H+L) Alexa Fluor 488 antibody (1:500, abcam) with Phalloidine Alexa Fluor 647 (1:1000, abcam). After washing with PBS, the coverslip was transferred to a slide and a drop of Fluoroshield with DAPI (Sigma, USA) was gently applied to the coverslip. The coverslip was sealed with clear nail polish and observed under a fluorescence microscope (FIG. 1B), and the number of OHCs and IHCs was measured to calculate the cell viability (FIG. 1C).", "note": "pEC50: −log10 of the molar value.", "data": [{"compound": "N.N.[Cl][Pt][Cl]", "note": "[cisplatin]", "values": [{"measurement": "pEC50", "setting": "apical turn", "value": 4.00}, {"measurement": "pEC50", "setting": "middle turn and basal turn", "value": 4.10}]}]}
